Measured values from ChEMBL document CHEMBL5154805, “From tryptophan-based amides to tertiary amines: Optimization of a butyrylcholinesterase inhibitor series” (Eur J Med Chem, 2022).

Experiments:
Acetylcholinesterase [1] = target: T1, Acetylcholinesterase (Homo sapiens, UniProt P22303); assay: Inhibition of recombinant human AChE assessed as residual activity at 3 uM using acetylthiocholine iodide as substrate preincubated for 1 to 30 mins followed by substrate addition by Ellman's method relative to control; settings: time 1-30 min
Cholinesterase [2] = target: T2, Cholinesterase (Homo sapiens, UniProt P06276)
Description: Inhibition of recombinant human BChE using butyrylthiocholine iodide as substrate preincubated for 1 to 30 mins followed by substrate addition by Ellman's method

Acetylcholinesterase [3] = target: T1, Acetylcholinesterase; assay: Inhibition of recombinant human AChE using acetylthiocholine iodide as substrate preincubated for 1 to 30 mins followed by substrate addition by Ellman's method
Acetylcholinesterase [4] = target: T1, Acetylcholinesterase; assay: Inhibition of recombinant human AChE assessed as residual activity at 100 uM using acetylthiocholine iodide as substrate preincubated for 1 to 30 mins followed by substrate addition by Ellman's method relative to control; settings: time 1-30 min
Cholinesterase [5] = target: T2, Cholinesterase; remark: listed apart in the source
Description: Binding affinity to human recombinant BChE assessed as decarbamoylation rate by measuring half life

[6] = target: Cholinesterases; ACHE & BCHE (Homo sapiens) (UniProt P06276+P22303); assay: Selectivity ratio of IC50 for recombinant human AChE to IC50 for recombinant human BChE; assay type: protein assay
Acetylcholinesterase [7] = target: T3, Acetylcholinesterase (Mus musculus, UniProt P21836); assay: Inhibition of mouse recombinant AChE assessed as reduction in cholinesterase activity using acetylthiocholine iodide as substrate preincubated for 1 to 30 mins followed by substrate addition by Ellman's method
T3 sequence (P21836 whole entry): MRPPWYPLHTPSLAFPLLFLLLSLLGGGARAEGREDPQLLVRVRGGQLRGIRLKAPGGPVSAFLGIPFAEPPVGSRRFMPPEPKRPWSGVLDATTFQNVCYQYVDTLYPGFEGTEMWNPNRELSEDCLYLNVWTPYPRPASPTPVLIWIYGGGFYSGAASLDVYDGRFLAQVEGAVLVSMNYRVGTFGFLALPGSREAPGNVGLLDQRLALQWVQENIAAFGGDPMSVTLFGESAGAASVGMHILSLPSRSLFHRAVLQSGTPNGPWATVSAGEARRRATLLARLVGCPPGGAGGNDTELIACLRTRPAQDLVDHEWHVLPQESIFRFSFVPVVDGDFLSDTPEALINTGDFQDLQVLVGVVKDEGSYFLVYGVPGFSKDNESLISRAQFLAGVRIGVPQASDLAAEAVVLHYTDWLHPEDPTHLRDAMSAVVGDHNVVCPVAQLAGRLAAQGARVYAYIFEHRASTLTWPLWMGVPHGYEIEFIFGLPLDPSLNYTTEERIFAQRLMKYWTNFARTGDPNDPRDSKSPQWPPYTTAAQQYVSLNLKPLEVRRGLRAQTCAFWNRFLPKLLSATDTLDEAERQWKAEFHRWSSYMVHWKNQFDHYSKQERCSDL

T1 sequence (P22303 whole entry): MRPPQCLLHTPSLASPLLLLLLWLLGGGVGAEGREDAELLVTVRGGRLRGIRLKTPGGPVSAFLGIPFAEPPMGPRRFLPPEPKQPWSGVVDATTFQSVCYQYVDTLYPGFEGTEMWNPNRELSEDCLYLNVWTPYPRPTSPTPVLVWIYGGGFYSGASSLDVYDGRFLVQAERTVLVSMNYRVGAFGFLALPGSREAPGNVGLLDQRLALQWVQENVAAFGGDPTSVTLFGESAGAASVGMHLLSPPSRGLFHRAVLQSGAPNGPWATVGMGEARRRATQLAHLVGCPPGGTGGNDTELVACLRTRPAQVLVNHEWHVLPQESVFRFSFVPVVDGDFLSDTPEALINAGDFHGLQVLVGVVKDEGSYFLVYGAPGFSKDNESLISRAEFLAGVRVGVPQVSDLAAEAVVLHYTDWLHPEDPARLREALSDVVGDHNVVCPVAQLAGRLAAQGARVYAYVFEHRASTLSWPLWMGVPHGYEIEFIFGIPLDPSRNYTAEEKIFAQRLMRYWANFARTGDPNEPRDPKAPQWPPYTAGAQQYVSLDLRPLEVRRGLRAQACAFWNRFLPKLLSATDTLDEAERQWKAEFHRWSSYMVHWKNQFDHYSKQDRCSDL
T2 sequence (P06276 whole entry): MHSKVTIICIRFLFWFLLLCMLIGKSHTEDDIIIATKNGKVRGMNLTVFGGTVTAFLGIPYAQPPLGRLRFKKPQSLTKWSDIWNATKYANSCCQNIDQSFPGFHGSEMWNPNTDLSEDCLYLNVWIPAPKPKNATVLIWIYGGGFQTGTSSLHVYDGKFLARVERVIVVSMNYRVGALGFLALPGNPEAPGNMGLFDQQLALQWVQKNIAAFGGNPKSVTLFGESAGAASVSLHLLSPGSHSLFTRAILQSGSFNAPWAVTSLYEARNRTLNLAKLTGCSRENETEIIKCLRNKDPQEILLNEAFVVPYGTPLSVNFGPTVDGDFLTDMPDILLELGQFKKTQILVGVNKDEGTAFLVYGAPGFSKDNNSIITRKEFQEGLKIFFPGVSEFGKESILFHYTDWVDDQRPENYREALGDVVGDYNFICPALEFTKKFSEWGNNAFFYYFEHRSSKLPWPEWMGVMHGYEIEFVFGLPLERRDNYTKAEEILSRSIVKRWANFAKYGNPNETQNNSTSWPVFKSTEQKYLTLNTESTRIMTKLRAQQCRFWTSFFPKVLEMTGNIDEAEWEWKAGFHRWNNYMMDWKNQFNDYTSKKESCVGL
Chain of Cholinesterases; ACHE & BCHE (Homo sapiens) (P06276 whole entry, looked up): as the sequence (P06276 whole entry) above
Chain of Cholinesterases; ACHE & BCHE (Homo sapiens) (P22303 whole entry, looked up): as the sequence (P22303 whole entry) above

CCCCN(CCC1CCCCCC1)Cc1c[nH]c2cc(Br)ccc12
Activity (Acetylcholinesterase [1]): > 50% | IC50 (Cholinesterase [2]): 3.6 nM

CN(C)C1CCC(CCN(CCCc2c[nH]c3ccccc23)CCC2CCCCCC2)CC1 (stereo in doubt; 32a) [listing 1 of 2 here]
IC50 (Cholinesterase [2]): 1.9 nM | IC50 (Acetylcholinesterase [3]): 12600 nM

CN(CCC1CCCCCC1)Cc1c[nH]c2ccccc12
Activity (Acetylcholinesterase [1]): > 50% | IC50 (Cholinesterase [2]): 60.4 nM | IC50 (Acetylcholinesterase [3]): 25200 nM

CN(CCC1CCCCCC1)Cc1c(-c2nnn[nH]2)[nH]c2ccccc12
Activity (Acetylcholinesterase [1]): > 50% | IC50 (Cholinesterase [2]): 929 nM

CN(CCc1c[nH]c2ccccc12)CCC1CCCCCC1
Activity (Acetylcholinesterase [1]): > 50%

CCCCN(CCCc1ccc2ccccc2c1)CCC1CCCCCC1
Activity (Acetylcholinesterase [1]): > 50% | IC50 (Cholinesterase [2]): 5.1 nM | Activity (Acetylcholinesterase [4]): 56%

CCCCN(CCc1c[nH]c2c(OC(=O)C(C)C)cccc12)CCC1CCCCCC1
Activity (Acetylcholinesterase [1]): > 50% | T1/2 (Cholinesterase [5]): 15.2 h | IC50 (Acetylcholinesterase [3]): 1370 nM

CCCCN(CCCC1CCNc2ccccc21)CCC1CCCCCC1 (centres undefined)
Activity (Acetylcholinesterase [1]): > 50% | IC50 (Cholinesterase [2]): 54.8 nM | Activity (Acetylcholinesterase [4]): 65%

CCCCN(CCCc1cc2ccccc2[nH]1)CCC1CCCCCC1
Activity (Acetylcholinesterase [1]): > 50% | IC50 (Cholinesterase [2]): 4.7 nM | Activity (Acetylcholinesterase [4]): 74%

CN(C)c1ccc(/C=C/CN(CCCc2c[nH]c3ccccc23)CCC2CCCCCC2)cc1
Activity (Acetylcholinesterase [1]): > 50% | IC50 (Cholinesterase [2]): 4.6 nM | Activity (Acetylcholinesterase [4]): 54%

CN(C)C1CCC(CCN(CCCc2c[nH]c3ccccc23)CCC2CCCCCC2)CC1 (stereo in doubt; 32a) [listing 2 of 2 here]
Activity (Acetylcholinesterase [1]): > 50%

CN1CCN(CCC2CCCCCC2)C[C@@H]1Cc1c[nH]c2ccccc12
Activity (Acetylcholinesterase [1]): > 50% | IC50 (Cholinesterase [2]): 10.5 nM | Activity (Acetylcholinesterase [4]): 39%

CCCC[N+]([O-])(CCc1c[nH]c2ccccc12)CCC1CCCCCC1 (centres undefined)
Activity (Acetylcholinesterase [1]): > 50% | IC50 (Cholinesterase [2]): 107 nM | Activity (Acetylcholinesterase [4]): 86%

CCCCN1CCN(CCCC2CCCCCC2)C[C@@H]1Cc1c[nH]c2ccccc12
Ratio IC50 [6]: > 1000 | Activity (Acetylcholinesterase [1]): > 50% | IC50 (Cholinesterase [2]): 5 nM | IC50 (Acetylcholinesterase [7]): 10300 nM

CCCCN(CCC1CCCCCC1)Cc1cc2ccccc2cc1OC(=O)N(C)C
Activity (Acetylcholinesterase [1]): > 50% | IC50 (Cholinesterase [2]): 2.2 nM

CCCCN(CCOc1cccc2c(OC(=O)N(C)C)cccc12)CCC1CCCCCC1
Activity (Acetylcholinesterase [1]): > 50% | IC50 (Cholinesterase [2]): 5.8 nM | IC50 (Acetylcholinesterase [3]): 47.9 nM

CCCCN(CCC1CCCCCC1)Cc1cn(OC(=O)N(C)C)c2ccccc12
Activity (Acetylcholinesterase [1]): > 50% | IC50 (Cholinesterase [2]): 133 nM | IC50 (Acetylcholinesterase [3]): 152 nM

CCCCN(CCc1c[nH]c2ccc(O)cc12)CCC1CCCCCC1
Activity (Acetylcholinesterase [1]): > 50% | IC50 (Cholinesterase [2]): 33.5 nM | Activity (Acetylcholinesterase [4]): 79%

CCCCN(CCCc1c[nH]c2ccccc12)CCC1CCN(Cc2ccccc2)CC1
Activity (Acetylcholinesterase [1]): > 50% | IC50 (Cholinesterase [2]): 29.3 nM | IC50 (Acetylcholinesterase [3]): 7840 nM

CN(CCC1CCCCCC1)Cc1cccc2[nH]ccc12
Activity (Acetylcholinesterase [1]): > 50% | IC50 (Cholinesterase [2]): 349 nM

c1ccc2c(c1)CCC2CCN(CCCc1c[nH]c2ccccc12)CCC1CCCCCC1 (centres undefined)
Activity (Acetylcholinesterase [1]): > 50% | IC50 (Cholinesterase [2]): 6.3 nM

CCCCN(CCC1CCCCCC1)Cc1c[nH]c2ccccc12
Activity (Acetylcholinesterase [1]): > 50% | IC50 (Cholinesterase [2]): 13.3 nM

CCCCN(CCc1c[nH]c2cc(O)ccc12)CCC1CCCCCC1
Activity (Acetylcholinesterase [1]): > 50% | IC50 (Acetylcholinesterase [3]): 70600 nM

CCCCN(CCc1c[nH]c2ccc(OC(=O)N(C)C)cc12)CCC1CCCCCC1
Activity (Acetylcholinesterase [1]): > 50% | IC50 (Cholinesterase [2]): 6.9 nM

CCCCN(CCCc1c[nH]c2ccccc12)CCC1CCC(N(C)C)CC1 (stereo in doubt; 33a) [listing 1 of 2 here]
IC50 (Cholinesterase [2]): 205 nM

CCCCN(CCCc1c[nH]c2ccccc12)CCC1CCC(N(C)C)CC1 (stereo in doubt; 33a) [listing 2 of 2 here]
Activity (Acetylcholinesterase [1]): > 50%

CCCCN(CCCc1c[nH]c2ccc(F)cc12)CCC1CCCCCC1
Activity (Acetylcholinesterase [1]): > 50% | IC50 (Cholinesterase [2]): 6 nM

CCCCN(CCCc1c[nH]c2ccccc12)CCC1CCCCCC1
Activity (Acetylcholinesterase [1]): > 50% | IC50 (Cholinesterase [2]): 2.4 nM

CCCCN(CCC1CCCCCC1)Cc1cc(OC(=O)N(C)C)c2ccccc2c1
Activity (Acetylcholinesterase [1]): > 50% | IC50 (Cholinesterase [2]): 2.4 nM

CCCCN(CCC1CCCCCC1)Cc1ccc(OC(=O)N(C)C)c2ccccc12
Activity (Acetylcholinesterase [1]): > 50% | IC50 (Cholinesterase [2]): 1.9 nM | IC50 (Acetylcholinesterase [3]): 101 nM

CN(C)C1CCC(CCN(CCCc2c[nH]c3ccccc23)CCC2CCCCCC2)CC1 (stereo in doubt; 32b) [listing 1 of 2 here]
Activity (Acetylcholinesterase [1]): > 50%

c1ccc2c(CCCN(CCC3CCCCCC3)CCC3CCCCC3)c[nH]c2c1
Activity (Acetylcholinesterase [1]): > 50% | IC50 (Cholinesterase [2]): 4.9 nM

CCCCN(CCOc1ccc2ccc(OC(=O)N(C)C)cc2c1)CCC1CCCCCC1
Activity (Acetylcholinesterase [1]): > 50% | IC50 (Cholinesterase [2]): 11.7 nM

CCCCN(C)[C@@H](Cc1c[nH]c2ccccc12)CN(C)CCC1CCCCCC1
Activity (Acetylcholinesterase [1]): > 50% | IC50 (Cholinesterase [2]): 3 nM | IC50 (Acetylcholinesterase [7]): 23400 nM

CCCCN(CCc1c(-c2ccccc2OC(=O)N(C)C)[nH]c2ccccc12)CCC1CCCCCC1
Activity (Acetylcholinesterase [1]): > 50% | IC50 (Cholinesterase [2]): 5.4 nM

CCCCN(CCC1CCCCCC1)Cc1cc2ccccc2cc1O
Activity (Acetylcholinesterase [1]): > 50% | IC50 (Cholinesterase [2]): 33.7 nM | IC50 (Acetylcholinesterase [3]): 18600 nM

CCCCN(CCc1cn(C(=O)N(C)C)c2ccccc12)CCC1CCCCCC1
Activity (Acetylcholinesterase [1]): > 50% | IC50 (Cholinesterase [2]): 0.87 nM

CCCCN(CCCc1c[nH]c2ccccc12)CCC1CCC(N(C)C)CC1 (stereo in doubt; 33b) [listing 1 of 2 here]
IC50 (Cholinesterase [2]): 214 nM

CCCCN[C@H](CNCCC1CCCCCC1)Cc1c[nH]c2ccccc12
Activity (Acetylcholinesterase [1]): > 50% | IC50 (Cholinesterase [2]): 10.1 nM | IC50 (Acetylcholinesterase [7]): 12400 nM

CCCCN(CCc1c[nH]c2cc(OC(=O)N(C)C)ccc12)CCC1CCCCCC1
Activity (Acetylcholinesterase [1]): > 50% | T1/2 (Cholinesterase [5]): 14.8 h

CCCCN(CCc1c[nH]c2ccccc12)CCC1CCCCCC1
Activity (Acetylcholinesterase [1]): > 50% | IC50 (Cholinesterase [2]): 5 nM

CCCC[N+](C)(CCCc1c[nH]c2ccccc12)CCC1CCCCCC1 (centres undefined)
Activity (Acetylcholinesterase [1]): > 50% | IC50 (Cholinesterase [2]): 2.3 nM | IC50 (Acetylcholinesterase [3]): 23200 nM

CCCCN(CCC1CCCCCC1)CCC1CCc2ccccc21 (centres undefined)
Activity (Acetylcholinesterase [1]): > 50% | IC50 (Cholinesterase [2]): 6.5 nM

CCCCN(CCCc1cccc2ccccc12)CCC1CCCCCC1
Activity (Acetylcholinesterase [1]): > 50% | IC50 (Cholinesterase [2]): 1.9 nM

CN(C)C1CCC(CCN(CCCc2c[nH]c3ccccc23)CCC2CCCCCC2)CC1 (stereo in doubt; 32b) [listing 2 of 2 here]
IC50 (Cholinesterase [2]): 4.1 nM | IC50 (Acetylcholinesterase [3]): 8570 nM

CCCCN(CCCc1c[nH]c2ccccc12)CCC1CCC(N(C)C)CC1 (stereo in doubt; 33b) [listing 2 of 2 here]
Activity (Acetylcholinesterase [1]): > 50%

c1ccc2c(CCNCCC3CCCCCC3)c[nH]c2c1
Activity (Acetylcholinesterase [1]): > 50% | IC50 (Cholinesterase [2]): 31.5 nM

CCCCN(CCC1CCCCCC1)Cc1c[nH]c2ncccc12
Activity (Acetylcholinesterase [1]): > 50% | IC50 (Cholinesterase [2]): 83 nM | Activity (Acetylcholinesterase [4]): 57%

CCCCN(CCC1CCCCCC1)Cc1c[nH]c2cc(C#N)ccc12
Activity (Acetylcholinesterase [1]): > 50% | IC50 (Cholinesterase [2]): 83.7 nM

CCCCN(CCc1c(-c2ccccc2O)[nH]c2ccccc12)CCC1CCCCCC1
Activity (Acetylcholinesterase [1]): > 50% | IC50 (Cholinesterase [2]): 16.8 nM

CN(CCC1CCN(Cc2ccccc2)CC1)Cc1c[nH]c2ccccc12
Activity (Acetylcholinesterase [1]): > 50% | IC50 (Cholinesterase [2]): 1710 nM | IC50 (Acetylcholinesterase [3]): 33900 nM

CCCCN(CCC1CCCCCC1)Cc1cc(O)c2ccccc2c1
Activity (Acetylcholinesterase [1]): > 50% | IC50 (Cholinesterase [2]): 4.7 nM

CCCCN1CN(CCC2CCCCCC2)C[C@@H]1Cc1c[nH]c2ccccc12
Ratio IC50 [6]: > 1000 | Activity (Acetylcholinesterase [1]): > 50% | IC50 (Cholinesterase [2]): 8.7 nM | IC50 (Acetylcholinesterase [7]): 11000 nM

CCCCN(CCc1c[nH]c2c(O)cccc12)CCC1CCCCCC1
Activity (Acetylcholinesterase [1]): > 50% | Activity (Acetylcholinesterase [4]): 69%
